Data reported in patent publication US9284318B2, “Protein kinase inhibitors” (Pharmascience, Inc., priority 2011, dated 2016).

Key:
MV4-11 cells = experiment: Human MV4-11 biphenotypic B myelomonocytic leukemia cell survival assay; type: cell-based; conditions: cell survival at 72h, Cell Titer-Glo
Procedure: Human MV4-11 Biphenotypic B Myelomonocytic Leukemia Cell Survival Assay
Biphenotypic B myelomonocytic leukemia MV4-11 cells (ATCC CRL-9591) were cultured in suspension at 37° C., 5% CO2 in complete medium (RPMI supplemented with 10% FBS, 1% penicillin/streptomycin). One day prior to treatment, cells per seeded in 96-well plates at 8000 cells/well in complete medium. The following day, triplicate wells were treated with compound curves of 100, 1000 or 10,000 nM starting concentration according to compound potency. Cell survival was measured 72h later by Cell Titer-Glo Luminescent Assay (Promega). Luminescence was read using a Tecan Infinite F200 microplate reader. EC50 values (50% survival in the presence of compound as compared to vehicle treated controls) were calculated from non-linear fit dose response compound curves using CambridgeSoft BioAssay software (Perkin Elmer).

[1] = molecular target: T1, recombinant human colony stimulating factor 1 receptor (FMS) (Homo sapiens, UniProt P07333); experiment: Biochemical cFMS (CSF1R) fluorescence polarization kinase assay; conditions: 10 μM ATP, 100 μM substrate, 60 minutes
T1 construct: containing the catalytic domain (amino acids 538-910); His tag; purchased Invitrogen; host or cells: insect cells
T1 sequence (P07333 538-910): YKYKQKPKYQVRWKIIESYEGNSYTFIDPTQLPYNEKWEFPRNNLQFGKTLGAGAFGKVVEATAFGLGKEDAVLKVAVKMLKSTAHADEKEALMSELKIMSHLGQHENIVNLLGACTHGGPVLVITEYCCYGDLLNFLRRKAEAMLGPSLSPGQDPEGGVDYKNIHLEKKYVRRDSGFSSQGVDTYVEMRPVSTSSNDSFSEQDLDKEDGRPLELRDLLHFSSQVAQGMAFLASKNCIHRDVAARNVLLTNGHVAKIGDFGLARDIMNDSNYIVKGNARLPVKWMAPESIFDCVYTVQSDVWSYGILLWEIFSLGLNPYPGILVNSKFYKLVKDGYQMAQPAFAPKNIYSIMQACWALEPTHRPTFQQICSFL
Procedure: Biochemical cFMS (CSF1R) Assay:
Fluorescence polarization-based kinase biochemical assays were performed in 384 well-plate format using histidine tagged recombinant human colony stimulating factor 1 receptor (FMS) supplied from Invitrogen™ (containing the catalytic domain (amino acids 538-910), expressed in insect cells and activated in vitro via auto phosphorylation) and a modified protocol of the KinEASE™ FP Fluorescein Green Assay supplied from Millipore™.
Kinase reactions were performed in 384 well plate format at room temperature for 60 minutes in presence of 100 μM substrate, 10 μM ATP and variable test article concentrations. The reaction was stopped with EDTA/KinEASE™ detection reagents and the polarization measured on a Tecan 500 instrument. From the dose-response curve obtained, the IC50 was estimated using Graph pad Prisms® using a non linear fit curve.

[2] = test system: M-NFS-60 M-CSF-dependent myeloid leukemia cells; experiment: Murine M-CSF-dependent M-NFS-60 cell survival assay; type: cell-based; conditions: Mus musculus; cell survival at 72 hours, 20 ng/ml M-CSF, Cell Titer-Glo
Procedure: Cellular Assays: Murine M-CSF-Dependent M-NFS-60 Cell Survival Assay
Murine M-NFS-60 M-CSF-dependent myeloid leukemia cells were purchased from ATCC (CRL-1838). Cells were routinely cultured at 37° C., 5% CO2 in complete medium (RPMI supplemented with 10% FBS, 1% penicillin/streptomycin, 50 uM beta mercaptoethanol) containing 30 ng/ml recombinant murine M-CSF (Peprotech 315-02). For survival assays, cells were transferred to depleted medium (complete medium depleted of M-CSF) for 24 hours prior to initiation of each experiment. M-CSF-starved cells were harvested and re-suspended in complete medium containing 20 ng/ml M-CSF. Cells were seeded at 25,000 cells/well in 96-well plates and incubated for 1 hour at 37° C., 5% CO2. Cells were treated with 1 uM or 10 uM compound curves in triplicate and cell survival was measured 72 hours later by Cell Titer-Glo Luminescent Assay (Promega). Luminescence was read using a Tecan Infinite F200 microplate reader. EC50 values (50% survival in the presence of compound as compared to vehicle treated controls) were calculated from non-linear fit dose response compound curves using GraphPad Prism Software.

Compound: Nc1ccc(-n2c3c(c4ncnc(N)c42)CCC3)cc1 [Compound 2]
- EC50 (MV4-11 cells): < 100 nM

Compound: Nc1ncnc2c3c(n(-c4ccc(NS(=O)(=O)c5ccccc5)cc4)c12)CCC3 [Compound 3]
- IC50 [1]: > 1000 nM
- EC50 (MV4-11 cells): > 1000 nM
- EC50 [2]: > 1000 nM

Compound: Nc1ncnc2c3c(n(-c4ccc(NC(=O)Nc5ccccc5)cc4)c12)CCC3 [Compound 4]
- IC50 [1]: < 100 nM
- EC50 (MV4-11 cells): < 100 nM
- EC50 [2]: < 100 nM

Compound: Nc1ncnc2c3c(n(-c4ccc5c(c4)OCO5)c12)CCC3 [Compound 5]
- EC50 (MV4-11 cells): > 1000 nM

Compound: CS(=O)(=O)Nc1ccc(-n2c3c(c4ncnc(N)c42)CCC3)cc1 [Compound 6]
- EC50 (MV4-11 cells): > 1000 nM

Compound: COc1ccc(-n2c3c(c4ncnc(N)c42)CCC3)cc1 [Compound 7]
- EC50 (MV4-11 cells): > 1000 nM

Compound: CCNC(=O)Nc1ccc(-n2c3c(c4ncnc(N)c42)CCC3)cc1 [Compound 9]
- IC50 [1]: > 1000 nM
- EC50 (MV4-11 cells): 100 to 1000 nM
- EC50 [2]: > 1000 nM

Compound: Nc1ncnc2c3c(n(-c4ccc(NC(=O)c5ccccc5)cc4)c12)CCC3 [Compound 10]
- IC50 [1]: > 1000 nM
- EC50 (MV4-11 cells): > 1000 nM
- EC50 [2]: > 1000 nM

Compound: COc1cccc(NC(=O)Nc2ccc(-n3c4c(c5ncnc(N)c53)CCC4)cc2)c1 [Compound 11]
- IC50 [1]: < 100 nM
- EC50 (MV4-11 cells): < 100 nM
- EC50 [2]: < 100 nM

Compound: Nc1ncnc2c3c(n(-c4ccc(Nc5ccccc5)cc4)c12)CCC3 [Compound 12]
- IC50 [1]: > 1000 nM
- EC50 (MV4-11 cells): > 1000 nM
- EC50 [2]: > 1000 nM

Compound: COc1ccc(NC(=O)Nc2ccc(-n3c4c(c5ncnc(N)c53)CCC4)cc2)cc1 [Compound 13]
- EC50 (MV4-11 cells): < 100 nM
- EC50 [2]: < 100 nM

Compound: Nc1ncnc2c3c(n(Cc4ccccc4)c12)CCC3 [Compound 15]
- EC50 (MV4-11 cells): > 1000 nM

Compound: COc1ccccc1NC(=O)Nc1ccc(-n2c3c(c4ncnc(N)c42)CCC3)cc1 [Compound 16]
- IC50 [1]: 100 to 1000 nM
- EC50 (MV4-11 cells): < 100 nM
- EC50 [2]: < 100 nM

Compound: Nc1ncnc2c3c(n(-c4ccc(NC(=O)Nc5cccc(C(F)(F)F)c5)cc4)c12)CCC3 [Compound 17]
- IC50 [1]: 100 to 1000 nM
- EC50 (MV4-11 cells): < 100 nM
- EC50 [2]: < 100 nM

Compound: Nc1ccc(-n2c3c(c4ncnc(N)c42)CCCC3)cc1 [Compound 18]
- EC50 (MV4-11 cells): 100 to 1000 nM

Compound: Nc1ncnc2c3c(n(-c4ccc(NC(=O)Nc5cccc(F)c5)cc4)c12)CCC3 [Compound 19]
- IC50 [1]: < 100 nM
- EC50 (MV4-11 cells): 100 to 1000 nM
- EC50 [2]: < 100 nM

Compound: Nc1ncnc2c3c(n(-c4ccc(NC(=O)Nc5cccc(Cl)c5)cc4)c12)CCC3 [Compound 20]
- IC50 [1]: 100 to 1000 nM
- EC50 (MV4-11 cells): 100 to 1000 nM
- EC50 [2]: < 100 nM

Compound: Nc1ncnc2c3c(n(-c4ccc(NC(=O)Nc5ccc(C(F)(F)F)cc5)cc4)c12)CCC3 [Compound 21]
- IC50 [1]: 100 to 1000 nM
- EC50 (MV4-11 cells): 100 to 1000 nM
- EC50 [2]: < 100 nM

Compound: Nc1ncnc2c3c(n(-c4ccc(NC(=O)Nc5ccc(Cl)cc5)cc4)c12)CCC3 [Compound 22]
- EC50 (MV4-11 cells): 100 to 1000 nM
- EC50 [2]: < 100 nM

Compound: Nc1ncnc2c3c(n(-c4ccc(NC(=O)Nc5ccccc5C(F)(F)F)cc4)c12)CCC3 [Compound 23]
- IC50 [1]: 100 to 1000 nM
- EC50 (MV4-11 cells): > 1000 nM
- EC50 [2]: 100 to 1000 nM

Compound: Nc1ncnc2c3c(n(-c4ccc(O)cc4)c12)CCC3 [Compound 26]
- EC50 (MV4-11 cells): > 1000 nM

Compound: Nc1ncnc2c3c(n(-c4ccc(NC(=O)Nc5ccc(OC(F)F)cc5)cc4)c12)CCC3 [Compound 27]
- IC50 [1]: < 100 nM
- EC50 (MV4-11 cells): < 100 nM
- EC50 [2]: < 100 nM

Compound: Nc1ncnc2c3c(n(-c4ccc(NC(=O)Nc5ccc6c(c5)OCO6)cc4)c12)CCC3 [Compound 28]
- IC50 [1]: < 100 nM
- EC50 (MV4-11 cells): < 100 nM
- EC50 [2]: < 100 nM

Compound: Nc1ncnc2c3c(n(CCc4ccccc4)c12)CCC3 [Compound 29]
- EC50 (MV4-11 cells): > 1000 nM

Compound: Nc1ncnc2c3c(n(-c4ccc(NC(=O)NCc5ccccc5)cc4)c12)CCC3 [Compound 30]
- IC50 [1]: 100 to 1000 nM
- EC50 (MV4-11 cells): < 100 nM
- EC50 [2]: 100 to 1000 nM

Compound: Nc1ncnc2c3c(n(-c4ccc(NC(=O)OCc5ccccc5)cc4)c12)COC3 [Compound 31]
- EC50 (MV4-11 cells): 100 to 1000 nM

Compound: Nc1ccc(-n2c3c(c4ncnc(N)c42)COC3)cc1 [Compound 32]
- EC50 (MV4-11 cells): 100 to 1000 nM

Compound: Nc1ncnc2c3c(n(-c4ccc(NC(=O)Nc5ccc(F)cc5)cc4)c12)COC3 [Compound 33]
- IC50 [1]: 100 to 1000 nM
- EC50 (MV4-11 cells): 100 to 1000 nM
- EC50 [2]: 100 to 1000 nM

Compound: COc1ccc(-n2c3c(c4ncnc(N)c42)CCC3)cc1OC [Compound 34]
- EC50 (MV4-11 cells): > 1000 nM

Compound: COc1cc(NC(=O)Nc2ccc(-n3c4c(c5ncnc(N)c53)CCC4)cc2)ccc1F [Compound 35]
- IC50 [1]: < 100 nM
- EC50 (MV4-11 cells): < 100 nM
- EC50 [2]: 100 to 1000 nM

Compound: Nc1ncnc2c3c(n(-c4ccc(NC(=O)Nc5ccccc5Cl)cc4)c12)CCC3 [Compound 36]
- IC50 [1]: 100 to 1000 nM
- EC50 (MV4-11 cells): > 1000 nM
- EC50 [2]: 100 to 1000 nM

Compound: CC(=O)Nc1ccc(-n2c3c(c4ncnc(N)c42)CCC3)cc1 [Compound 37]
- EC50 (MV4-11 cells): > 1000 nM

Compound: C[C@H](NC(=O)Nc1ccc(-n2c3c(c4ncnc(N)c42)CCC3)cc1)c1ccccc1 [Compound 38]
- EC50 (MV4-11 cells): > 1000 nM
- EC50 [2]: 100 to 1000 nM

Compound: Nc1ncnc2c3c(n(-c4ccc(NC(=O)Nc5ccccc5F)cc4)c12)CCC3 [Compound 39]
- IC50 [1]: 100 to 1000 nM
- EC50 (MV4-11 cells): 100 to 1000 nM
- EC50 [2]: < 100 nM

Compound: Nc1ncnc2c3c(n(CCCc4ccccc4)c12)CCC3 [Compound 40]
- EC50 (MV4-11 cells): 100 to 1000 nM

Compound: Nc1ncnc2c3c(n(-c4ccc(NC(=O)NC5CCCCC5)cc4)c12)CCC3 [Compound 41]
- IC50 [1]: 100 to 1000 nM
- EC50 (MV4-11 cells): < 100 nM
- EC50 [2]: 100 to 1000 nM

Compound: Nc1ncnc2c3c(n(-c4ccc(NC(=O)NCCc5ccc(F)cc5)cc4)c12)CCC3 [Compound 42]
- EC50 (MV4-11 cells): < 100 nM
- EC50 [2]: 100 to 1000 nM

Compound: Cc1ccc(F)c(NC(=O)Nc2ccc(-n3c4c(c5ncnc(N)c53)CCC4)cc2)c1 [Compound 43]
- IC50 [1]: < 100 nM
- EC50 (MV4-11 cells): < 100 nM
- EC50 [2]: < 100 nM

Compound: Nc1ncnc2c3c(n(-c4ccccc4)c12)CCC3 [Compound 49]
- EC50 (MV4-11 cells): 100 to 1000 nM

Compound: Nc1ncnc2c3c(n(CCCCc4ccccc4)c12)CCC3 [Compound 51]
- EC50 (MV4-11 cells): > 1000 nM

Compound: Nc1ncnc2c3c(n(-c4ccc(NC(=O)NCc5ccc(F)cc5)cc4)c12)CCC3 [Compound 52]
- EC50 (MV4-11 cells): < 100 nM
- EC50 [2]: 100 to 1000 nM

Compound: COc1cc(NC(=O)Nc2ccc(-n3c4c(c5ncnc(N)c53)CCC4)cc2)cc(C(F)(F)F)c1 [Compound 70]
- EC50 (MV4-11 cells): < 100 nM

Compound: CC(C)(C)c1cc(NC(=O)Nc2ccc(-n3c4c(c5ncnc(N)c53)CCC4)cc2)no1 [Compound 74]
- IC50 [1]: < 100 nM
- EC50 [2]: < 100 nM
